The numbers were not newly measured in paper PMC12238501 (Scientific Reports, 2025), which cites them from elsewhere.

Consider `Oc1ccc(C=Cc2cc(O)cc(O)c2)cc1` [Resveratrol, 3,4’,5-trihydroxystilbene], for which the Solubility in water entry was “low solubility in water”.
